Data reported in patent US20240245696A1, “INHIBITORS OF DNA PK AND USES THEREOF” (BioVentures, LLC, priority 2017, published 2024).
“Also recorded” adds a separate entry of the source.

Columns and labels:
[1] = tested on: skin allograft mouse model; assay: Mouse skin allograft; assay type: in vivo
Method: Materials: DNA-PK inhibitor, NU7441 was purchased from Selleckchem.com and used in vivo at 10 mg/kg diluted in DMSO and 40% PEG or in vitro at 5 μM. Tacrolimus (FK506) was ordered for Sigma Aldrich and used at a concentration of 1 mg/kg in vivo.
Mouse skin allograft: To confirm that DNA-PK inhibitors could function as an immunosuppressant in vivo, mouse skin allograft studies were performed. All studies were performed under an approved IACUC protocol. Ears from donor BALBc mice were removed and split into two removing all cartilaginous material. The ear skin was placed on an incision made to the back of a recipient C57BI6 or DNA-PK knockout (NOD.CB17-Prkdc scid/J-20) mouse. The skin was sutured in 4 places using 6-0 nylon sutures. Wounds were wrapped in gauze and ban-daids and allowed to heal for 6 days before removing the bandage. Spleens were harvested from donor mice for splenocyte isolation. On Day 0 through Day 10 (the day of sacrifice) mice were injected (100 ul) daily with one of the following: saline, Tacrolimus (1 mg/kg), or NU7441 ([…]). Mice were monitored for rejection daily which was indicated by dark, black appearance. At the time of sacrifice, mice were euthanisized according to IACUC guidelines and skin grafts removed and fixed in formalin for histology. Spleens and blood were also collected.

[2] = tested on: Cabin1; assay: Western blot of Cabin1 expression in activated Jurkat cells; assay type: cell-based, human; conditions: Jurkat activated with PMA+PHA
Method: Cell lysis and nuclear extract: Cells were washed with cold PBS twice and centrifuged at 5000 rpm for 5 minutes. For the nuclear extract, pellets were suspended with 800 μL of 10 mN HEPES lysis buffer (10 mM HEPES at pH 7.9, 10 mM KCl, 1 mM DTT, and 1× protease and phosphatase inhibitor) and incubated on ice for 15 minutes. 50 μL of NP-40 (10% in water) was added and the pellets were mixed for 10 seconds. Lysates were centrifuged for 5 minutes at 4° C. at 13,000 rpm. The supernatant solution which is containing the cytosolic fraction was discarded and the pellets were resuspended in 20 mM HEPES lysis buffer (20 mM HEPES at pH 7.9, 0.4 M NaCl, 1 mM DTT, and 1× protease, and phosphatase inhibitor) and incubated on ice for 15 minutes with intermittent mixing. Lysates were centrifuged for 10 minutes at 4° C. at 13,000 rpm. The supernatant containing nuclear extract was stored at -20° C. until they were used for the Western blot analysis. For total cell lysates, cell pellets were resuspended with 100 μL of RIPA buffer (150 mM NaCl, 1% Triton X-100, 0.1% SDS, and 50 mM Tris at pH 8.0) and incubated on ice for 10 minutes. The lysates were centrifuged for 10 minutes at 4° C. at 13,000 rpm and the supernatant solutions were stored at -20° C. until they were used for the Western blot analysis. Western blot analysis: Nuclear extract lysates were separated on 3-8% Tris-Acetate gels (Invitrogen). […]

[3] = tested on: PD-1; assay: qPCR of PD-1 expression in stimulated Jurkat cells; assay type: cell-based, human; conditions: PHA+PMA stimulation
Method: Evaluation of PD-1 and IL-2 expression: The effect of NU7441 on the expression of PD-1, a protein with immunosuppressant function, and IL-2 was examined in Jurkat cells following stimulation with PHA+PMA and treatment with the inhibitor NU7441. qPCR analysis was performed using primers specific for PD1 and IL-2 sequences.

[4] = target: DNA-PKcs (Homo sapiens, UniProt P78527); conditions: reference [24]; cited from earlier work
[5] = tested on: Jurkat cells; assay: Cell viability assay (CELLTITER 96 AQUEOUS One) in Jurkat cells; assay type: cell-based, human; conditions: NU7441 at varying concentrations, 48 hours
Method: Cell Culture: Human peripheral blood mononuclear cells (PBMC,) and Jurkat cells were purchased from ATCC (PCS-800-011, Manassas, VA). Cells were maintained at 37° C. in a humidified atmosphere composed of 5% CO2. Jurkat cells were cultured in RPMI 1640 medium which was supplemented with 10% FCS and human PBMC was cultured in RPMI 1640 medium which was supplemented with 10% FCS and pen/strep. Both Jurkat cells and PBMC were stimulated with PHA (50 ng/mL) and PMA (1 μg/mL) for 24 hours prior to harvesting for IL-2 detection or 6 hours prior for western blot analysis. The NU7441 DNA-PKcs inhibitor was added at varying concentrations at the time of stimulation. Cell viability assay: Cell viability assay was performed using Promega CELLTITER 96 AQUEOUS One Solution Cell Proliferation Assay (Madison, WI) and following the manufacturer's protocol. Briefly, 100 μL of PBMC or Jurkat cells were plated in a 96-well plate and treated with various concentration of NU7441 for 48 hours. CELLTITER solution (20 μL/100 μL of cell suspension) was added to the cells and the plate was incubated for 3 hours at 37° C. and the absorbance at 490 nm was recorded using SynergyHTX (BioTek, Winooski, VT) plate reader.

[6] = tested on: NFAT; assay: Immunofluorescence of NFAT nuclear translocation in Jurkat cells; assay type: cell-based, human; design: dose or concentration left out as unconfirmed; conditions: Jurkat activated with PMA+PHA, inhibitor
Method: Immunofluorescence of NFAT: Jurkat cells were plated in poly-lysine treated 35 mm dish with glass-bottom (BioTek) overnight. The cells were fixed with 4% formaldehyde and permeabilized with permeabilization solution (0.2% TRITON X-100+OVA solution (0.1 mg/mL), 0.01% sodium azide). NFAT was probed with anti-NFAT2 (ab2796, Abcam) in permeabilization solution overnight at 4° C., and then washed with PBS. Fluorescein (FITC)-conjugated AffiniPure Donkey Anti-Mouse IgG (715-095-151, Jackson ImmunoResearch) was applied to the cells for 1 hour at room temperature. The cells were washed with PBS and ProLong Antifade reagent with DAPI (Molecular Probes) was applied. All samples were analyzed on an Olympus Fluoview FV1000 laser confocal microscope. Images from all microscopy experiments were processed using the FV10-ASW 3.1 Viewer (Olympus).

O=c1cc(N2CCOCC2)oc2c(-c3cccc4c3sc3ccccc34)cccc12 [NU7441]
level of necrosis of skin graft, average ([1]; Day 10, BALBc donor skin on C57BI6 recipient, daily injection Day 0 through Day 10): around 30% | rejection in skin allograft mouse model ([1]; compared to control groups treated only with saline): reduces rejection | visual examination of graft necrosis ([1]; treatment groups vs saline groups (severe necrosis)): majority with 0% necrosis | Cabin1 expression [2]: elevated Cabin1 expression | Cabin1 expression ([2]; listed as NU744): increase in Cabin1 expression | expression level of PD-1 [3]: did not alter | inhibition of DNA-PKcs [4]: potent and specific inhibitor | interference with ATR or ATM activation [4]: does not interfere | viability of Jurkat cells [5]: did not alter the viability; also recorded: no significant reduction in viability | nuclear localization of NFAT [6]: nuclear localization was prevented; also recorded: blocked translocation of NFAT to the nucleus
